The subject of assay [1] is SW620 human colorectal cancer cells. Put plainly: MTT based cell viability assay: potentiation of the growth inhibiting activity of MMS. Particulars: Homo sapiens, SW-620, 120 h, read-out: IC50 (nM), potentiation of the growth inhibiting activity of MMS, SW620 cells, 1.7 μg/ml MMS, 5 days (120 hours), MTT.
The subject of assay [2] is Human breast cancer cell line T47D. Put plainly: Cell based caspase-3 activity assay: potentiation of MMS induced apoptosis. The note with it: Homo sapiens, T47D, 24 h, T47D cells, 11.1 μg/ml MMS, 24 hours, intracellular caspase-3 activity; read-out: EC50 (nM), potentiation of the apoptosis inducing activity of MMS. From the text: Determination of the synergistic potentiation effect of 1-(3-(4-(pyrimidin-2-yl)piperazine-1-carbonyl)benzyl)quinazoline-2,4(1H,3H)-dione and analogs on MMS induced apoptosis using a cell based caspase-3 activity assay
Human breast cancer cell line T47D was used to determine the potentiation effect of PARP inhibitors on the apoptosis inducing activity of DNA damaging anticancer drugs such as MMS. Intracellular caspase-3 activity was used to measure cell apoptosis. The dose response effect of MMS to induce intracellular caspase activity was carefully titrated and the concentration that only induces a minimal level of caspase activity was used to test the potentiation effect of PARP inhibitors. Briefly, T47D cells were grown in DMEM/F12 cell culture medium (Hyclone) supplemented with 0.2 U/ml insulin (Genview) and 10% FBS (Hyclone). A day before experiment, 20000 of T47D cells were seeded to each well of a 96-well cell culture plate and maintained at 37° C. and 5% CO2 in a cell culture incubator overnight. On the day of experiment, cell culture medium was removed. One hundred and eighty μl of fresh medium containing 11.1 μg/ml MMS was added to each well and followed by 20 μl medium containing 10 folds of the concentrations of experimental drugs or reference compounds (ADZ2281 and ABT-888). The serial dilutions of the compounds to be tested and the reference compounds were made in a 1:3 and 1:10 fashion in DMSO. The 10-fold compound solutions were made by mixing 10 μl DMSO serial dilution solutions with 90 μl fresh growth medium. Twenty four hours later, the cells in the 96-well plates were centrifuged at 1000 g for 5 min and the supernatants were removed. Fifty μl lysis buffer (10 mM Tris, pH7.5, 0.1M NaCl, 1 mM EDTA, 0.01% Triton X-100) was added to each well and the plates were shaked horizontally for 30 min at 4° C. After centrifugation at 1000 g at 4° C. for 10 min, 20 μl of supernatant was transferred from each well to a corresponding well in a 384-well black plate. Twenty μl of buffer (20 mM PIPES, pH7.4, 4 mM EDTA and 0.2% CHAPS) containing 20 μM fluorescent caspase-3 substrate ((Ac-DEVD)2-R110, AnaSpec Cat #60304-5) was added to each well afterwards. The plates were shaked to uniformly mix the wells and incubated at 37° C. for 3 h. The fluorescence intensity was measured using the following wavelength: ex: 496 nm, em: 520 nm using a fluorescence plate reader (Varioskan Flash, Thermo Fisher Scientific). The caspase-3 activity induced by the compounds was expressed as a relative fluorescence unit (RFU). The obtained fluorescence readings were analyzed using a commercial graphic software (GraphPad Prism 5) and plotted against the Log value of the compound concentrations. The EC50 values were obtained by fitting the data points with the equation of Y (fluorescence reading)=minimal fluorescence reading+(maximal fluorescence reading−minimal fluorescence reading)/(1+10^(Log EC50−Log C)), where C is the concentration of the testing compound.
The synergistic potentiation effect of compounds on MMS induced apoptosis in T47D cells is expressed as EC50 values and listed in Table 2.

Where only a bound is given, the exact number is not on record here.

Experimental findings from patent US9926304B2, “1-(arylmethyl)quinazoline-2,4(1H,3H)-diones as PARP inhibitors and the use thereof” (Impact Therapeutics, Inc., priority 2011, dated 2018) are described below.

Usually EC50 stands for the concentration that produces a half-maximal response.

As for `O=C(c1ccc(F)c(Cn2c(=O)[nH]c(=O)c3cc(F)ccc32)c1)N1CCN(C(=O)c2cccs2)CC1` [Example 151, 6-Fluoro-1-(6-fluoro-3-(4-(thiophene-2-carbonyl)piperazine-1-carbonyl)benzyl)quinazoline-2,4(1H,3H)-dione], the IC50 in assay [1] worked out at 18 nM. Further, the EC50 in assay [2] stood at 5.2 nM.
With `O=C(c1ccc(F)c(Cn2c(=O)[nH]c(=O)c3ccccc32)c1)N1CCN(C(=O)C2CCC2)CC1` [Example 53, 1-(3-(4-(Cyclobutylcarbonyl)piperazine-1-carbonyl)-6-fluorobenzyl)quinazoline-2,4(1H,3H)-dione], the IC50 in assay [1] is 59 nM. In addition, in assay [2], the half-maximal effective concentration (EC50) was found to be 18 nM.
On the same counts, the results for `O=C(c1cc(F)cc(Cn2c(=O)[nH]c(=O)c3cc(Cl)ccc32)c1)N1CCN(c2ncccn2)CC1` [Example 175, 6-Chloro-1-(5-fluoro-3-(4-(pyrimidin-2-yl)piperazine-1-carbonyl)benzyl)quinazoline-2,4(1H,3H)-dione] are 16 nM and 14 nM.
Consider `O=C(c1cc(F)cc(Cn2c(=O)[nH]c(=O)c3ccccc32)c1)N1CCN(c2ncccn2)CC1` [Example 63, 1-(5-Fluoro-3-(4-(pyrimidin-2-yl)piperazine-1-carbonyl)benzyl)quinazoline-2,4(1H,3H)-dione], for which the IC50 in assay [1] is 50 nM. The EC50 in assay [2] stood at 15 nM.
For `O=C(c1ccc(Br)cc1)N1CCN(C(=O)c2ccc(Cn3c(=O)[nH]c(=O)c4ccccc43)cc2)CC1` [Example 98, 1-(4-(4-(4-Bromobenzoyl)piperazine-1-carbonyl)benzyl)quinazoline-2,4(1H,3H)-dione] the same measures were greater than 10000 nM and greater than 10000 nM.
On the same counts, the results for `O=C(c1cccc(Cn2c(=O)[nH]c(=O)c3ccccc32)c1)N1CCN(C(=O)c2ccccn2)CC1` [Example 37, 1-(3-(4-(Pyridine-2-carbonyl)piperazine-1-carbonyl)benzyl)quinazoline-2,4(1H,3H)-dione] are greater than 10000 nM and 1910 nM.
In the case of `O=C(c1cccc(Cn2c(=O)[nH]c(=O)c3cc(Br)ccc32)c1)N1CCN(c2ncccn2)CC1` [Example 88, 6-Bromo-1-(3-(4-(pyrimidin-2-yl)piperazine-1-carbonyl)benzyl)quinazoline-2,4(1H,3H)-dione], in assay [1], the IC50 came to 137 nM. Moreover, the EC50 in assay [2] was 67 nM.
On the same counts, the results for `O=C(c1cccc(Cn2c(=O)[nH]c(=O)c3ccccc32)c1)N1CCN(C(=O)C2CCOCC2)CC1` [Example 13, 1-(3-(4-(Tetrahydro-2H-pyran-4-carbonyl)piperazine-1-carbonyl)benzyl)quinazoline-2,4(1H,3H)-dione] are 727 nM and 6600 nM.
As for `O=C(c1ccccc1)N1CCN(C(=O)c2cc(Cn3c(=O)[nH]c(=O)c4c(F)cccc43)ccc2F)CC1` [Example 137, 1-(3-(4-Benzoylpiperazine-1-carbonyl)-4-fluorobenzyl)-5-fluoroquinazoline-2,4(1H,3H)-dione], in assay [1], the IC50 came to 7 nM. The EC50 in assay [2] worked out at 2.1 nM.
As for `CCS(=O)(=O)N1CCN(C(=O)c2cccc(Cn3c(=O)[nH]c(=O)c4ccccc43)c2)CC1` [Example 16, 1-(3-(4-(Ethylsulfonyl)piperazine-1-carbonyl)benzyl)quinazoline-2,4(1H,3H)-dione], the IC50 in assay [1] worked out at 7260 nM. Besides, the EC50 in assay [2] is 9210 nM.
On the same counts, the results for `O=C(c1ccc(F)c(Cn2c(=O)[nH]c(=O)c3c(Cl)cccc32)c1)N1CCN(C(=O)c2cccs2)CC1` [Example 171, 5-Chloro-1-(6-fluoro-3-(4-(thiophene-2-carbonyl)piperazine-1-carbonyl)benzyl)quinazoline-2,4(1H,3H)-dione] are 70 nM and 23 nM.
For `O=C(c1cccc(Cn2c(=O)[nH]c(=O)c3cc(F)ccc32)c1)N1CCN(C(=O)C2CCC2)CC1` [Example 179, 1-(3-(4-(Cyclobutylcarbonyl)piperazine-1-carbonyl)benzyl)-6-fluoroquinazoline-2,4(1H,3H)-dione] the same measures were 12 nM and 7.4 nM.
For `CCN1CCN(C(=O)c2cccc(Cn3c(=O)[nH]c(=O)c4ccccc43)c2)CC1` [Example 7, 1-(3-(4-Ethylpiperazine-1-carbonyl)benzyl)quinazoline-2,4(1H,3H)-dione] the same measures were 5270 nM and 2660 nM.
In the case of `O=C(c1ccc(F)c(Cn2c(=O)[nH]c(=O)c3c(Cl)cccc32)c1)N1CCN(C(=O)C2CCCCC2)CC1` [Example 108, 5-Chloro-1-(3-(4-(cyclohexylcarbonyl)piperazine-1-carbonyl)-6-fluorobenzyl)quinazoline-2,4(1H,3H)-dione], the IC50 in assay [1] is 78 nM. Besides, the EC50 in assay [2] was 68 nM.
On the same counts, the results for `O=C(c1ccc(Cl)c(Cn2c(=O)[nH]c(=O)c3ccccc32)c1)N1CCN(C(=O)C2CCCC2)CC1` [Example 55, 1-(6-Chloro-3-(4-(cyclopentylcarbonyl)piperazine-1-carbonyl)benzyl)quinazoline-2,4(1H,3H)-dione] are 89 nM and 20 nM.
On the same counts, the results for `Cc1cccc2c1c(=O)[nH]c(=O)n2Cc1cccc(C(=O)N2CCN(C(=O)C3CCCC3)CC2)c1` [Example 160, 1-(3-(4-(Cyclopentylcarbonyl)piperazine-1-carbonyl)benzyl)-5-methylquinazoline-2,4(1H,3H)-dione] are 394 nM and 261 nM.
Take `O=C(c1cccc(Cn2c(=O)[nH]c(=O)c3cccc(F)c32)c1)N1CCN(c2ncccn2)CC1` [Example 218, 8-Fluoro-1-(3-(4-(pyrimidin-2-yl)piperazine-1-carbonyl)benzyl)quinazoline-2,4(1H,3H)-dione]: the IC50 in assay [1] came to 103 nM. In addition, the EC50 in assay [2] was 37 nM.
On to `O=C(c1cccc(Cn2c(=O)[nH]c(=O)c3ccccc32)c1)N1CCC(c2noc3cc(F)ccc23)CC1` [Example 31, 1-(3-(4-(6-Fluorobenzo[d]isoxazol-3-yl)piperidine-1-carbonyl)benzyl)quinazoline-2,4(1H,3H)-dione], for which the IC50 in assay [1] was 2600 nM. Further, the EC50 in assay [2] stood at 112 nM.
For `O=C(c1cccc(Cn2c(=O)[nH]c(=O)c3c(F)cccc32)c1)N1CCN(c2ccccn2)CC1` [Example 130, 5-Fluoro-1-(3-(4-(pyridin-2-yl)piperazine-1-carbonyl)benzyl)quinazoline-2,4(1H,3H)-dione] the same measures were 15 nM and 87 nM.
For `O=C(c1cc(Cn2c(=O)[nH]c(=O)c3cc(F)ccc32)ccc1F)N1CCN(C(=O)C2CCC2)CC1` [Example 180, 1-(3-(4-(Cyclobutylcarbonyl)piperazine-1-carbonyl)-4-fluorobenzyl)-6-fluoroquinazoline-2,4(1H,3H)-dione] the same measures were 3.1 nM and 1.4 nM.
For `COc1cccc2c1c(=O)[nH]c(=O)n2Cc1cccc(C(=O)N2CCN(c3ncccn3)CC2)c1` [Example 203, 5-Methoxy-1-(3-(4-(pyrimidin-2-yl)piperazine-1-carbonyl)benzyl)quinazoline-2,4(1H,3H)-dione] the same measures were greater than 10000 nM and greater than 10000 nM.
With `O=C(c1cccc(Cn2c(=O)[nH]c(=O)c3ccccc32)c1)N1CCC(Oc2ccccc2)CC1` [Example 39, 1-(3-(4-Phenoxypiperidine-1-carbonyl)benzyl)quinazoline-2,4(1H,3H)-dione], the IC50 in assay [1] was determined as 604 nM. Also, the concentration giving a half-maximal response (EC50) in assay [2] worked out at 614 nM.
For `O=C(c1cccc(Cn2c(=O)[nH]c(=O)c3ccccc32)c1)N1CCN(c2ccncc2)CC1` [Example 29, 1-(3-(4-(Pyridin-4-yl)piperazine-1-carbonyl)benzyl)quinazoline-2,4(1H,3H)-dione] the same measures were greater than 10000 nM and greater than 10000 nM.
